In patent publication US20240238282A1, “METHODS OF TREATING CANCER AND ISCHEMIA DISEASES BY INHIBITION AND INTERVENTION OF ATR PROLYL ISOMERIZATION” (The University of Toledo, priority 2022, published 2024):

System: patient derived PDCL5 cells of metastatic pancreatic cancer
Test: Cell killing of patient-derived pancreatic cancer PDCL5 cells by gemcitabine, LB-100 or the combination
Type: cell-based, human
Details: single agent: gemcitabine 1.0 uM or LB-100 5 uM, 72 hours (FIG. 3E)
Protocol: FIGS. 3A-3E: Analysis of the antiapoptotic function of cis-ATR in human cancer via TCGA data mining. […] FIGS. 3F-3G show two patient-derived pancreatic cancer cells, PDCL5 and PDCL15, subjected to MTT assays after treating with the PDAC therapy drug gemcitabine (1.0 μM or 0.3 μM, respectively) and PP2A inhibitor LB-100 (5 μM), alone or in combination, for 72 hours. PANC-1 cells were treated with gemcitabine (1.0 μM) or FOLFIRINOX (5-FU, 10 μM, oxaliplatin, 0.1 μM, leucovorin, 0.15 μM, irinotecan, 0.1 μM), alone or in combination with LB-100 (1.0 μM), for 72 hours before the MTT assay.
To further validate the above observations are not at random, the 5-year survival probability (SP) of different subgroups was calculated for all 17 cancer types, and paired Wilcoxon rank-sum tests were performed. […] The SP difference of DAPK1 expression level is not significant, likely because DAPK indirectly regulates cis-ATR while ATR is a direct substrate of Pin1 and PP2A. […] This remains true even for the analysis regardless of cancer types (FIG. 3D). […]
MTT viability assays were performed according to the manufacturer's specifications (Cayman's MTT Proliferation Assay kit #10009365), and […]. […]

Row | SMILES | cell death induced
1 | Nc1ccn([C@@H]2O[C@H](CO)[C@@H](O)C2(F)F)c(=O)n1 [Gemcitabine, gemcitabine] | little cell death
2 | CN1CCN(C(=O)C2C3CCC(O3)C2C(=O)O)CC1 (centres unmarked) [LB-100] | little cell death
